Data set [1] has as its system BVDV. Kind of data set: microbe, parasite or virus in culture. The data set is classed as cell-based, bovine viral diarrhea virus (strain NADL). The conditions noted are these: read-out: EC50 BVDV.
The subject of data set [2] is MDBK cells. Nature of the data set: Cytotoxicity in mock-infected MDBK cells (MTT). The conditions noted are these: for CC50: read-out: CC50 MDBK, mock-infected MDBK cells, MTT, pure compounds.
Data set [3] is described as follows: Cytotoxicity in mock-infected MDBK cells (MTT). The conditions noted are these: bovine (Bos taurus), mock-infected MDBK cells (Madin-Darby bovine kidney).
The test system of data set [4] is DENV-2. The data set is classed as cell-based, dengue virus (DENV-2).
The test system of data set [5] is YFV. The data set is classed as cell-based, yellow fever virus (strain 17-D).
The test system of data set [6] is BHK cells.
Data set [7] deals with WNV. The data set is classed as cell-based, west Nile virus.
Data set [8] relates to RSV. Nature of the data set: microbe, parasite or virus in culture. Type of data set: cell-based, human respiratory syncytial virus (strain A2). The conditions noted are these: human respiratory syncytial virus, Vero 76, read-out: EC50 RSV.
Data set [9] can be described thus: in vitro. The note with it: monkey (Cercopithecus aethiops).
Data set [10] in a line: in vitro. The conditions noted are these: human.
Data set [11] relates to Vero-76 cells.
For data set [12], the system named is VV. The data set is classed as cell-based, vaccinia virus.
In data set [13] the test system is CV-B5. Nature of the data set: organism not typed. The data set is classed as cell-based, coxsackie type B5. The conditions noted are these: Vero 76, read-out: EC50 CV-B5.
Data set [14] concerns BVDV. Nature of the data set: Virucidal assay against BVDV virions. Further details: species or system bovine viral diarrhea virus. The note with it: 100 µM, 2 h, 4 and 37 °C.
Data set [15] relates to BVDV. Type of data set: cell-based, bovine viral diarrhea virus. The note with it: 100, 20, 4, 0.8 µM.
The mark [16] stands for this setting: Bovine viral diarrhea virus isolates and strains, MDBK.

“Also recorded” adds a separate entry of the source. Where two headings read alike, the source gives them in different places.

For the molecule 2+β Thujone, in data set [1], the EC50 (in general, the concentration at which the effect is half-maximal) was greater than 100 µM. In addition, the CC50 in data set [2] was greater than 100 µM.

Regarding `CC12CCC(CC1)C(C)(C)O2` [1,8-Cineole], the EC50 in data set [1] (setting [16]) was greater than 100 µM. The same molecule returned a CC50 in [3] greater than 100 µM.

Consider `C[C@@]1(O)[C@H](O)[C@@H](CO)O[C@H]1n1cnc2c(=O)[nH]c(N)nc21` [2′-C-Me-Guanosine], for which the EC50 in data set [1] worked out at 1.6 ± 0.2 µM; in data set [4] it was 300 nM; in data set [5] it was 1200 nM; in data set [7], 400 nM. In addition, the CC50 was 60 µM in data set [6] and greater than 100 µM in data set [2].

For `O=c1cnn([C@@H]2O[C@H](CO)[C@@H](O)[C@H]2O)c(=O)[nH]1` [6-Aza-Uridine], in data set [8], the EC50 worked out at 1000 nM. The molecule further displayed a CC50 in data set [9] of 4 µM.

On to `C=C1C2CCC(C2)C1(C)C` (centres unmarked) [Camphene], for which, in data set [1] (setting [16]), the EC50 was greater than 100 µM. Besides, in [3], the CC50 was greater than 100 µM.

For the molecule `CC12CCC(CC1=O)C2(C)C` (centres unmarked) [Camphor], the EC50 in [1] (setting [16]) is greater than 100 µM. Besides, the CC50 in data set [3] was greater than 100 µM.

As to `O=C1Nc2ccc(Cl)cc2[C@@](C#CC2CC2)(C(F)(F)F)O1` [Efavirenz], the CC50 in data set [10] was 40 µM.

For `C=C(C)[C@H]1CC=C(C)CC1` [Limonene], the EC50 in data set [1] is greater than 100 µM. Moreover, in data set [2], the CC50 was greater than 100 µM.

In data set [11], `COc1c(C)c2c(c(O)c1C/C=C(\C)CCC(=O)O)C(=O)OC2` [Mycophen.Ac.] displayed a CC50 of 20 µM. Moreover, in data set [12], the response was half-maximal at 1500 nM (EC50).

Take `Cc1cc(CCCOc2c(C)cc(-c3noc(C(F)(F)F)n3)cc2C)on1` [Pleconaril]: the EC50 in data set [13] came to 5 nM. Besides, the CC50 in data set [9] is greater than 100 µM.

In the case of `C=C1CC/C=C(\C)CC[C@@H]2[C@@H]1CC2(C)C` [Trans-Caryophyllene], the EC50 in data set [1] (setting [16]) came out at 90 ± 1 µM. In data set [3], this molecule returned a CC50 greater than 100 µM.

With `C/C1=C\CC/C(C)=C/CC(C)(C)/C=C/C1` [α-Humulene], the “Virucidal activity (BVDV titer of treated vs untreated virus)” value in data set [14] is given as “No significant differences”. For the same molecule, the “Reduction of BVDV titer (yield reduction)” value in data set [15] is given as “dose-dependent reduction of virus titer; also recorded: reduce the viral BVDV titer in vitro assays in a dose-dependent manner”. The EC50 in data set [1] is 36 ± 0.5 µM. In data set [2] (MDBK cells), the “Cytotoxicity (in words)” value is recorded as “non-cytotoxic”. Also, the CC50 in data set [2] was greater than 100 µM.

On to `C=C1CCC2CC1C2(C)C` (stereo not drawn) [β-Pinene], for which, in data set [1] (setting [16]), the EC50 is greater than 100 µM. This molecule registered a CC50 in data set [3] greater than 100 µM.
